Laboratory results from publication PMC4858680, “A platinum-based hybrid drug design approach to circumvent acquired resistance to molecular targeted tyrosine kinase inhibitors” (Scientific Reports, 2016).
Where two headings read alike, the source gives them in different places.

How the values were obtained:
KIT(L576P) = KIT(L576P) (Homo sapiens, UniProt P10721, L576P); test: biochemical; conditions: read-out: Percent control
H292 = test: Anticancer activity (cytotoxicity) in NSCLC cell line; assay type: cell-based
CSK = CSK (Homo sapiens, UniProt P41240); test: biochemical; conditions: read-out: Percent control
ITK [1] = target: T1, ITK (Homo sapiens, UniProt Q08881); test: biochemical; conditions: read-out: Percent control
T1 sequence (Q08881 1-620): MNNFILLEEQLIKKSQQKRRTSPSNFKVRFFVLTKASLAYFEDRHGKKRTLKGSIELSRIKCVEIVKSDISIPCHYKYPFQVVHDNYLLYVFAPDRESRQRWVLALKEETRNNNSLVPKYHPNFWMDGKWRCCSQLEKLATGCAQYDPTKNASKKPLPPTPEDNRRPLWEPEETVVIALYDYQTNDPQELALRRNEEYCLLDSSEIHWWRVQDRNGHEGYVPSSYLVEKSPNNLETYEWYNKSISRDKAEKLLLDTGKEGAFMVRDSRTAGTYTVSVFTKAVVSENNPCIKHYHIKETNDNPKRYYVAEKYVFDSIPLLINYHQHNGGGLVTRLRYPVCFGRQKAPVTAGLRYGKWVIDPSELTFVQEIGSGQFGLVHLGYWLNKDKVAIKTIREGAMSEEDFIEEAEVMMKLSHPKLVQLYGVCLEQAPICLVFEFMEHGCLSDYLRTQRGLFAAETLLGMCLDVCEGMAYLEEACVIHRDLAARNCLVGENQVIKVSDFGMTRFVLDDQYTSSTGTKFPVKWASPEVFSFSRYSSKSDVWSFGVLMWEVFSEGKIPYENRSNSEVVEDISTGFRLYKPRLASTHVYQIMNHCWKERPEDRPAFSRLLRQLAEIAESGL

ITK [2] = target: T1, ITK; conditions: 10 μM
FGFR2 = FGFR2 (Homo sapiens, UniProt P21802); conditions: 10 μM
EPHB4 = target: T2, EPHB4 (Homo sapiens, UniProt P54760); conditions: 10 μM
T2 sequence (P54760 16-987): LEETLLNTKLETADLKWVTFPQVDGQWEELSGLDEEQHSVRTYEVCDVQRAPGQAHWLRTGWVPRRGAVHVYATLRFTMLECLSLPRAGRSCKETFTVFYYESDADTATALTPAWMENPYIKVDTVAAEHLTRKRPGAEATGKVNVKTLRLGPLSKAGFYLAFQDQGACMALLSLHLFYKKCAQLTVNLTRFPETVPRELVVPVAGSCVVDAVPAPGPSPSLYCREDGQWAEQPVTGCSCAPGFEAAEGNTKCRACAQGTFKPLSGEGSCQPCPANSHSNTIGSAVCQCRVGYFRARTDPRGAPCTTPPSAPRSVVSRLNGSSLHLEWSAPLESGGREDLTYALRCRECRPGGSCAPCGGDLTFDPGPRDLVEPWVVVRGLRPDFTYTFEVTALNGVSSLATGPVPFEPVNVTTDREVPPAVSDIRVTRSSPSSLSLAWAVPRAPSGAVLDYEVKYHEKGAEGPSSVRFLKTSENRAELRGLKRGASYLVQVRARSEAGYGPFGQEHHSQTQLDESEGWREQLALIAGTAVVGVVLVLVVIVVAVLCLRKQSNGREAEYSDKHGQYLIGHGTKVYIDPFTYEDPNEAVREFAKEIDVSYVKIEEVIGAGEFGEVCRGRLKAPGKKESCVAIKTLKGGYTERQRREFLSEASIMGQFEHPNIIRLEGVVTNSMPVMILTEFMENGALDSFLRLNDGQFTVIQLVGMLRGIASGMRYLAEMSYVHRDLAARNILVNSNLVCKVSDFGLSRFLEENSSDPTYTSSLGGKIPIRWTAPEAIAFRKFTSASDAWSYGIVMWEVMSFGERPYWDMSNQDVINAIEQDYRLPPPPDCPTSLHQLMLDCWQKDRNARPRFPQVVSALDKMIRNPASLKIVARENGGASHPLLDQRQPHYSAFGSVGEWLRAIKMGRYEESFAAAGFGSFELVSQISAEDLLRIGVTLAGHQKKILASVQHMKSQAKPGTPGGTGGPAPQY

KIT(A829P) = KIT(A829P) (Homo sapiens, UniProt P10721, A829P); conditions: 10 μM
KIT = KIT (Homo sapiens, UniProt P10721); conditions: 10 μM
PDGFRA = PDGFRA (Homo sapiens, UniProt P16234); conditions: 10 μM
RET = RET (Homo sapiens, UniProt P07949); conditions: 10 μM
FYN = FYN (Homo sapiens, UniProt P06241); conditions: 10 μM
FRK = FRK (Homo sapiens, UniProt P42685); conditions: 10 μM
[3] = Homo sapiens, NCI-H292, read-out: Anticancer activity (IC50) H292
[4] = NSCLC, EGFR wild type, read-out: Anticancer activity (IC50) H292

Chain of KIT(A829P) (P10721 26-976 A829P): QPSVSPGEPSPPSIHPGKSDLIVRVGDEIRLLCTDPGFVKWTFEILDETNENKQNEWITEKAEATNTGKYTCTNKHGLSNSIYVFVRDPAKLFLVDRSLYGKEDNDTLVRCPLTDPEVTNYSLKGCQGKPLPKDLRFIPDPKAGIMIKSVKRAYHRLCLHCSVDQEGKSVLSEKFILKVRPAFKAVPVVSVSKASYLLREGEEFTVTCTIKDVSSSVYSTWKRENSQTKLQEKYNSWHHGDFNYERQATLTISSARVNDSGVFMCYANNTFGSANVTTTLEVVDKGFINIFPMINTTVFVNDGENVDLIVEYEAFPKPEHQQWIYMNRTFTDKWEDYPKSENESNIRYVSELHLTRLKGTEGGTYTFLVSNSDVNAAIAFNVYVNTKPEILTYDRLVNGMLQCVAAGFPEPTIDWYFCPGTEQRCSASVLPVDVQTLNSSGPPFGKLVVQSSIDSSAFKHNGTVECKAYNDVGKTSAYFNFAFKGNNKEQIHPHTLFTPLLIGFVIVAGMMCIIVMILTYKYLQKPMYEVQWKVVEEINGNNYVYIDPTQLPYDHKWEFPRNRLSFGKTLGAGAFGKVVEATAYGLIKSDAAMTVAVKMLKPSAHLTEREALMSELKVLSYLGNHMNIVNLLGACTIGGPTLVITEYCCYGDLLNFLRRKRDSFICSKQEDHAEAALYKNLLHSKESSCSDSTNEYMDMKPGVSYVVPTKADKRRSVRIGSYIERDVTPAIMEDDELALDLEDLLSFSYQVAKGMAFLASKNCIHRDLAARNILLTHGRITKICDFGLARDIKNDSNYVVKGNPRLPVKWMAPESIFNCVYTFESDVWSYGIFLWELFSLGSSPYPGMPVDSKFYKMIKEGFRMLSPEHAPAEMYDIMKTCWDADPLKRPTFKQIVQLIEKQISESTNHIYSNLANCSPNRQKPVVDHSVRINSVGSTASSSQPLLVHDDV
Chain of FYN (P06241 whole entry): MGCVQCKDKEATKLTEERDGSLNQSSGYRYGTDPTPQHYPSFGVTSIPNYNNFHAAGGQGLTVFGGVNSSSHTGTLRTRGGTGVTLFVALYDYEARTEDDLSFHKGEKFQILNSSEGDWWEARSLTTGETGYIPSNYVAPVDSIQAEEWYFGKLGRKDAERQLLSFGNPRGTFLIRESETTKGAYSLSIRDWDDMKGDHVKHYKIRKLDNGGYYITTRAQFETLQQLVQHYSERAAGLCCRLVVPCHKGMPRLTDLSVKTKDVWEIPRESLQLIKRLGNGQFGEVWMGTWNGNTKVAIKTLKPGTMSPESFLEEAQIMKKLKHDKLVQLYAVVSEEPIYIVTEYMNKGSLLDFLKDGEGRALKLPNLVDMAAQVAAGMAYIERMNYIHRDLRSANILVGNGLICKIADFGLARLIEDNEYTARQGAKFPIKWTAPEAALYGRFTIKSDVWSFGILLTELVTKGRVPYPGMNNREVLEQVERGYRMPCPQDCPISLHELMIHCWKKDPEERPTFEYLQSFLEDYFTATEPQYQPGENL
Chain of FRK (P42685 whole entry): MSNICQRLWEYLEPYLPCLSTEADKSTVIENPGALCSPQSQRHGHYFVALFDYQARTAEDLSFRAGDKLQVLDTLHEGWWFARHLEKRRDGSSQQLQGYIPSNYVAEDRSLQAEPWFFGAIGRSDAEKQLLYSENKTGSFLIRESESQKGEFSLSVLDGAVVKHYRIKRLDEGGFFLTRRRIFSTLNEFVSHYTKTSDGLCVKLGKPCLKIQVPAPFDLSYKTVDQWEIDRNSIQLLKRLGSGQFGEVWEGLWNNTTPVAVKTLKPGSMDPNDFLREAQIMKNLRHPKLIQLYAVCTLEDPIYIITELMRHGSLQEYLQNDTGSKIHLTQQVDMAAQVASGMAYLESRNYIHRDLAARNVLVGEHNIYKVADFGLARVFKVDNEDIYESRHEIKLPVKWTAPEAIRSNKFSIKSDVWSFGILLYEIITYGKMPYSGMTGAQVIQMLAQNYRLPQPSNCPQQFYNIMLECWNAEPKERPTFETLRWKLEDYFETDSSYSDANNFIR
Chain of PDGFRA (P16234 24-1089): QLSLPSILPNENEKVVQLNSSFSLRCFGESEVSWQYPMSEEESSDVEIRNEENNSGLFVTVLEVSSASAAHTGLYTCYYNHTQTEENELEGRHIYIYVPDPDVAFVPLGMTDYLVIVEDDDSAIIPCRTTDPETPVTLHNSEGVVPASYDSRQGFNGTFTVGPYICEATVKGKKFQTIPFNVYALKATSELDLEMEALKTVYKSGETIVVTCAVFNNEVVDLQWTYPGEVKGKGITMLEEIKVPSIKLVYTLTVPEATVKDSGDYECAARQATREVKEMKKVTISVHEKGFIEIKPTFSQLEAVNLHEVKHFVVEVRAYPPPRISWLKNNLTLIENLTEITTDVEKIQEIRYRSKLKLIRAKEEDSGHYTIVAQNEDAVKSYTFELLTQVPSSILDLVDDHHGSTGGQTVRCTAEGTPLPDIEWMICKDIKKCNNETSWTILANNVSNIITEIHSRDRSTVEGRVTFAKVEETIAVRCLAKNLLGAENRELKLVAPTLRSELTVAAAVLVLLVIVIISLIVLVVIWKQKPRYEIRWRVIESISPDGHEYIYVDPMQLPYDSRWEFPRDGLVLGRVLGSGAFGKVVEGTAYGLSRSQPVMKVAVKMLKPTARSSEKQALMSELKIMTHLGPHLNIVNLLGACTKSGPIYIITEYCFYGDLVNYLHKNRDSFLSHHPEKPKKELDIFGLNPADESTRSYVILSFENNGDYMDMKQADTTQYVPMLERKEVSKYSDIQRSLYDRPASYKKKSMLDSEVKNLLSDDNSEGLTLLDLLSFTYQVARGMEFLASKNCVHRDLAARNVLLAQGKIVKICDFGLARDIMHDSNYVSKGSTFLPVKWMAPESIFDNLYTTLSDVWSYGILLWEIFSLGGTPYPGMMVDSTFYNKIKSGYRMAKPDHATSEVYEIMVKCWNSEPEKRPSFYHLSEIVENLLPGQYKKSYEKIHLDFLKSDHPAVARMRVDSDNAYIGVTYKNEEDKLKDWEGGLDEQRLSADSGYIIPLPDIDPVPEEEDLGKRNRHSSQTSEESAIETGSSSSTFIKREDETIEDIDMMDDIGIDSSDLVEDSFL
Chain of KIT(L576P) (P10721 26-976 L576P): as the sequence (P10721 26-976 A829P) above, with L551P, P804A counted along it
Chain of KIT (P10721 26-976): as the sequence (P10721 26-976 A829P) above, with P804A counted along it
Chain of FGFR2 (P21802 22-821): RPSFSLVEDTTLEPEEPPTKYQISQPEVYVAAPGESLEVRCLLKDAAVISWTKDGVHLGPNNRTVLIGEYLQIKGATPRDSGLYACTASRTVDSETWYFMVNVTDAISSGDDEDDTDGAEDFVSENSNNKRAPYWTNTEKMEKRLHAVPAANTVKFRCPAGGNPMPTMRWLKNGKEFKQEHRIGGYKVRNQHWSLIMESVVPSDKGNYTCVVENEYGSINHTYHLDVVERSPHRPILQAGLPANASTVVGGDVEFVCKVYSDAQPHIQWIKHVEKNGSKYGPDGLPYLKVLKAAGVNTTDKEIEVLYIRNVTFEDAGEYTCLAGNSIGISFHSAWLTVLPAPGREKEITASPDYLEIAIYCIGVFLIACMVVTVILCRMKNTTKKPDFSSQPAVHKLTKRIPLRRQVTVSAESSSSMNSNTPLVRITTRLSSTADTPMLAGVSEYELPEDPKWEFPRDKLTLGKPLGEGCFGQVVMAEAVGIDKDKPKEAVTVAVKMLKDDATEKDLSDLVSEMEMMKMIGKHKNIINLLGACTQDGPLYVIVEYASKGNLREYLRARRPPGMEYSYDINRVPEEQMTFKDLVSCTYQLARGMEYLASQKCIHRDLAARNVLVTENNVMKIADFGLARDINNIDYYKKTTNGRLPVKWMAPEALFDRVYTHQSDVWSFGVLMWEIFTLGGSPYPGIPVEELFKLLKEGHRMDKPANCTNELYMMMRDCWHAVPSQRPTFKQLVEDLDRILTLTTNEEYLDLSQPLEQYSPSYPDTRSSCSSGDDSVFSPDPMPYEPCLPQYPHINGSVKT
Chain of CSK (P41240 whole entry): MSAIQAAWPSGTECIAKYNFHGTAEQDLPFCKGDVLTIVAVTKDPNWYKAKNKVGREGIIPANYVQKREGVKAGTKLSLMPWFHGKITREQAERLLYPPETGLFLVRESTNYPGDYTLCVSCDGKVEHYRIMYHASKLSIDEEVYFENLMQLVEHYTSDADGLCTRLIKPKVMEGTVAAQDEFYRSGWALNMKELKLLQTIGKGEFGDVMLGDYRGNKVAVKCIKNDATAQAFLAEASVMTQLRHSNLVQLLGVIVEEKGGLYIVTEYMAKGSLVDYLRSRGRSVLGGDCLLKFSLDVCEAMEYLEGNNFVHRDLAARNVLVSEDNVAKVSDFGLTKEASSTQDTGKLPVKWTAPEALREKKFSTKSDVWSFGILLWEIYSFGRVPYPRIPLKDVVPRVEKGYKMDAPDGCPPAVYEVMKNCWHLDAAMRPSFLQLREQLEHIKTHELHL

| SMILES | remaining activity at 10 µM (KIT(L576P)) [%] | IC50 (H292; [3]) [µM] | remaining activity at 10 µM (CSK) [%] | remaining activity at 10 µM (ITK [1]) [%] | Percent control (ITK [2]) [%] | Percent control (FGFR2) [%] | Percent control (EPHB4) [%] | Percent control (KIT(A829P)) [%] | Percent control (KIT) [%] | Percent control (PDGFRA) [%] | Percent control (RET) [%] | Percent control (FYN) [%] | Percent control (FRK) [%] | IC50 (H292; [4]) [µM] |
| --- | --- | --- | --- | --- | --- | --- | --- | --- | --- | --- | --- | --- | --- | --- |
| C#Cc1cccc(Nc2ncnc3cc(OCCOC)c(OCCOC)cc23)c1 [Erlotinib] | 25.9 | 0.22 ± 0.12 | 49 | 100 |  |  |  |  |  |  |  |  |  |  |
| Cc1ccc(NC(=O)c2ccc(CN3CCN(C)CC3)cc2)cc1Nc1nccc(-c2cccnc2)[n+]1[Pt-2]1([Cl])[NH2+]C2CCCCC2[NH2+]1 (stereo not shown) [1b, oxaliplatin-imatinib] |  |  |  |  | 100 | 100 | 100 | 5 | 0.2 | 1.2 | 95 | 78 | 58 |  |
| COc1cc2c(Nc3ccc(Br)cc3F)ncnc2cc1OCC1CCN(C)CC1 [Vandetanib, reference compound] | 1.4 | 6.24 ± 0.94 | 20 | 100 |  |  |  |  |  |  |  |  |  |  |
| COc1cc2c(Nc3ccc(Br)cc3F)[n+]([Pt-2]3([Cl])[NH2+]C4CCCCC4[NH2+]3)cnc2cc1OCC1CCN(C)CC1 (stereo not shown) [3b, oxaliplatin-vandetanib] |  |  |  |  | 95 | 67 | 35 | 2.7 | 1.1 | 5.7 |  | 32 | 56 | 9.32 ± 1.01 |
| C#Cc1cccc(Nc2c3cc(OCCOC)c(OCCOC)cc3nc[n+]2[Pt@SP2-2]([NH3+])([NH3+])[Cl])c1 [2a, cisplatin-erlotinib] |  |  |  |  | 84 | 91 | 91 | 56 | 86 | 100 | 46 | 72 | 75 | 3.27 ± 1.75 |
| Cc1ccc(NC(=O)c2ccc(CN3CCN(C)CC3)cc2)cc1Nc1nccc(-c2cccnc2)n1 [Imatinib, reference compound] | 0.1 |  | 100 | 100 |  | 100 | 100 |  |  |  | 100 |  | 13.0 |  |
